Measured values taken from PubChem BioAssay (NCI).
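1) Cells in 96-well plates. 2) Compound, 48 h, 5 concentrations. 3) Linear interpolation between surrounding doses. 4) Unreached endpoint = highest concentration. GI50 is the concentration that inhibits growth by half. TGI denotes the concentration required for complete inhibition of growth.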

What was measured:
Test in all cases: DTP human tumour cell line panel, 48 h
ACHN renal = system: ACHN renal
CAKI-1 renal = system: CAKI-1 renal
HL-60(TB) leukemia = system: HL-60(TB) leukemia
IGROV1 ovarian = system: IGROV1 ovarian
M14 melanoma = system: M14 melanoma
NCI-H226 lung = system: NCI-H226 lung
NCI-H23 lung = system: NCI-H23 lung
SK-MEL-2 melanoma = system: SK-MEL-2 melanoma
SNB-75 CNS = system: SNB-75 CNS
SR leukemia = system: SR leukemia

Compound | TGI (ACHN renal) [µM] | TGI (CAKI-1 renal) [µM] | TGI (HL-60(TB) leukemia) [µM] | TGI (IGROV1 ovarian) [µM] | TGI (M14 melanoma) [µM] | TGI (NCI-H226 lung) [µM] | TGI (NCI-H23 lung) [µM] | TGI (SK-MEL-2 melanoma) [µM] | TGI (SNB-75 CNS) [µM] | TGI (SR leukemia) [µM] | GI50 (ACHN renal) [µM] | GI50 (CAKI-1 renal) [µM] | GI50 (HL-60(TB) leukemia) [µM] | GI50 (IGROV1 ovarian) [µM] | GI50 (M14 melanoma) [µM] | GI50 (NCI-H226 lung) [µM] | GI50 (NCI-H23 lung) [µM] | GI50 (SK-MEL-2 melanoma) [µM] | GI50 (SNB-75 CNS) [µM] | GI50 (SR leukemia) [µM]
C=CC1=C(C)C2=NC1=CC1=NC(=CC3=C(C)C4=C(O)C(C(=O)OC)C(=C5NC(=C2)C(C)C5CCC(=O)OC)C4=N3)C(CC)=C1C (stereo not given) | > 100 | > 100 | > 100 | > 100 | > 100 | > 100 | > 100 | > 100 | > 100 | > 100 |  |  |  |  |  |  |  |  |  | 
NS(=O)(=O)c1ccc(NC(=O)c2cccc3cc4ccccc4nc23)cc1 | > 100 | > 100 | > 100 | > 100 | > 100 | 98.7 | > 100 | > 100 | > 100 | > 100 |  |  |  |  |  |  |  |  |  | 
CCOC(=O)Nc1nc2c(C)cccc2s1 | > 100 | > 100 | > 100 | > 100 | > 100 | > 100 | > 100 | > 100 | > 100 | > 100 | 74.6 | 45.7 | 29.9 | 46 | 53 | > 100 | 38.8 | 85.8 | 30.9 | 73.3
COc1ccc(OC)c2c(=S)c3ccccc3[nH]c12 | > 100 | > 100 | 57.6 | > 100 | > 100 | > 21.5 | > 100 | > 100 | > 100 | > 100 |  |  |  |  |  |  |  |  |  | 
COC(=O)C1C(OCc2ccccc2)C2CCC1(OC)C=C2C (stereo not given) | > 100 | > 100 | 29.8 | > 100 | > 100 | > 100 | > 100 | > 93.7 | > 100 | 66.6 |  |  |  |  |  |  |  |  |  | 
Cc1c(N=Cc2ccc(N(CCC#N)CCC#N)cc2)c(=O)n(-c2ccccc2)n1C | 69.1 | > 100 | > 100 | > 100 | > 100 | > 100 | > 100 | > 100 | 60.1 | > 100 |  |  |  |  |  |  |  |  |  | 
COc1ccc(-c2c(N)[n+]([O-])c3ccccc3[n+]2[O-])cc1OC | > 100 | > 100 | > 100 | > 100 | > 100 | > 100 | > 100 | > 100 | > 100 | > 100 |  |  |  |  |  |  |  |  |  | 
Cc1ccc2c(c1)CNc1ccc(C)cc1CN2 | > 100 | > 100 | > 100 | > 100 | > 100 | > 100 | > 100 | > 100 | > 100 | > 100 |  |  |  |  |  |  |  |  |  | 
COc1ccccc1/C=C/C(=O)/C=C/c1ccccc1OC | 3.49 | 7.94 | 8.45 | 3.2 | 3.68 | 3.18 | 3.92 | 4.95 | 11.6 | 8.22 | 1.91 | 3.16 | 2.69 | 1.6 | 1.65 | 1.71 | 1.75 | 2.29 | 2.23 | 1.18
COc1cc2c(cn1)[nH]c1ccccc12 | > 100 | > 100 | > 100 | > 100 | > 100 | > 100 | > 100 | > 100 | > 100 | > 100 |  |  |  |  |  |  |  |  |  | 
Cc1cc(N(CCCl)CCCl)ccc1/C=N/NC(=O)Cc1cc(=O)oc2cc(O)ccc12 | 40.3 | 26.3 | 33.5 | 40.7 | 35.1 | 43.2 | 58.6 | > 100 | > 100 | > 100 |  |  |  |  |  |  |  |  |  | 
COc1ccccc1-c1cc(=O)c2ccc(OC)c(OC)c2o1 | > 100 | > 100 | > 100 | > 100 | > 100 | > 100 | > 100 | > 100 | > 100 | > 100 |  |  |  |  |  |  |  |  |  | 
C/C(=N\N=C(N)N)C(CN(C)C)C(c1ccccc1)c1c(O)c2ccccc2oc1=O (stereo not given) | > 100 | > 100 | > 100 | > 100 | > 100 | > 100 | > 100 | > 100 | > 100 | > 100 |  |  |  |  |  |  |  |  |  | 
COc1ccc2c(c1)/C(=N/OC(C)=O)c1c-2c(=O)[nH]c2ccccc12 | 28.2 | 25.6 | 4.88 | 11.8 | 27.4 | 29.8 | 16.2 | 29 | 25.9 | 33.1 | 14.2 | 11.5 | 1.83 | 1.52 | 13.2 | 14.3 | 2.34 | 13.6 | 11.1 | 6.63
CC(C)CN(CC(C)C)C(=O)C1CCCC[C@@H]1C(=O)O (stereo not given in full) | > 100 | > 100 | > 100 | > 100 | > 100 | > 100 | > 100 | > 100 | > 100 | > 100 |  |  |  |  |  |  |  |  |  | 
Cc1c2c(cc3c(=O)ccn(CCN(C)C)c13)c(=O)ccn2CCN(C)C | 26.3 | 67.8 | 41.6 | 37 | 25 | 31.7 | 33.9 | 44.4 | 25.6 | 37.6 |  |  |  |  |  |  |  |  |  | 
CCSc1nnc(-c2ccc3ccccc3c2O)n1-c1ccc(Cl)cc1 | > 100 | > 100 | > 100 | > 100 | > 100 | > 100 | > 100 | > 100 | > 100 | > 100 | 4.99 | 6.85 | 7.16 | 4.42 | 8.11 | 7.46 | > 100 | > 100 | 65.1 | 3.86
CC(C)Nc1ncc2cc(Oc3ccc(F)cc3F)c(=O)n(C)c2n1 | > 25 | > 25 | > 25 | > 25 | > 25 | > 25 | > 25 | > 25 | > 25 | > 25 | > 25 | > 25 | > 25 | > 25 | > 25 | > 25 | > 25 | > 25 | > 25 | > 25
